{"source": "patent US20200231614A1", "about": "“PSMA TARGETED RADIOHALOGENATED UREAS FOR CANCER RADIOTHERAPY” (THE JOHNS HOPKINS UNIVERSITY, priority 2015, published 2020)", "test_system": "PSMA + PC-3 PiP and PSMA − PC-3 flu tumor xenografts", "conditions": "for Biodistribution: PC-3 PiP: PSMA+ tumor xenograft; for Biodistribution: PC-3 flu: PSMA− tumor xenograft", "key": {"[1]": {"conditions": "21 H post-injection, comparative Table 13"}}, "note": "Like-named read-outs stand apart in the source and are kept apart here."}
{"molecule": "N=C(N)NCc1ccc(C(=O)NCCCCC(NC(=O)CCCCCCC(=O)NCCCC[C@H](NC(=O)N[C@@H](CCC(=O)O)C(=O)O)C(=O)O)C(=O)O)cc1[211At]", "note": "(some centres unmarked) [[^211At] labeled PSMA-904]", "values": [{"measurement": "Biodistribution: Lrg Int.", "setting": "1 H post-injection", "value": "0.75 ± 0.98", "unit": "% ID/g"}, {"measurement": "Biodistribution: Sm int.", "setting": "1 H post-injection", "value": "33.9 ± 5.49", "unit": "% ID/g"}, {"measurement": "Biodistribution: bladder", "setting": "1 H post-injection", "value": "1.17 ± 0.20", "unit": "% ID/g"}, {"measurement": "Biodistribution: blood", "setting": "1 H post-injection", "value": "0.65 ± 0.33", "unit": "% ID/g"}, {"measurement": "Biodistribution: heart", "setting": "1 H post-injection", "value": "0.84 ± 0.27", "unit": "% ID/g"}, {"measurement": "Biodistribution: kidney", "setting": "1 H post-injection", "value": "86.5 ± 15.5", "unit": "% ID/g"}, {"measurement": "Biodistribution: liver", "setting": "1 H post-injection", "value": "5.11 ± 4.13", "unit": "% ID/g"}, {"measurement": "Biodistribution: lung", "setting": "1 H post-injection", "value": "2.24 ± 0.51", "unit": "% ID/g"}, {"measurement": "Biodistribution: muscle", "setting": "1 H post-injection", "value": "0.38 ± 0.16", "unit": "% ID/g"}, {"measurement": "Biodistribution: spleen", "setting": "1 H post-injection", "value": "9.51 ± 2.76", "unit": "% ID/g"}, {"measurement": "Biodistribution: stomach", "setting": "1 H post-injection", "value": "1.64 ± 0.62", "unit": "% ID/g"}, {"measurement": "Biodistribution: thyroid", "setting": "1 H post-injection", "value": "0.51 ± 0.16", "unit": "% ID/g"}, {"measurement": "Biodistribution: Lrg Int.", "setting": "2 H post-injection", "value": "26.7 ± 15.3", "unit": "% ID/g"}, {"measurement": "Biodistribution: Sm int.", "setting": "2 H post-injection", "value": "13.8 ± 10.9", "unit": "% ID/g"}, {"measurement": "Biodistribution: bladder", "setting": "2 H post-injection", "value": "1.30 ± 0.24", "unit": "% ID/g"}, {"measurement": "Biodistribution: blood", "setting": "2 H post-injection", "value": "0.35 ± 0.03", "unit": "% ID/g"}, {"measurement": "Biodistribution: heart", "setting": "2 H post-injection", "value": "0.76 ± 0.11", "unit": "% ID/g"}, {"measurement": "Biodistribution: kidney", "setting": "2 H post-injection", "value": "87.7 ± 11.0", "unit": "% ID/g"}, {"measurement": "Biodistribution: liver", "setting": "2 H post-injection", "value": "3.80 ± 2.39", "unit": "% ID/g"}, {"measurement": "Biodistribution: lung", "setting": "2 H post-injection", "value": "1.96 ± 0.26", "unit": "% ID/g"}, {"measurement": "Biodistribution: muscle", "setting": "2 H post-injection", "value": "0.21 ± 0.03", "unit": "% ID/g"}, {"measurement": "Biodistribution: spleen", "setting": "2 H post-injection", "value": "4.31 ± 1.96", "unit": "% ID/g"}, {"measurement": "Biodistribution: stomach", "setting": "2 H post-injection", "value": "2.86 ± 0.67", "unit": "% ID/g"}, {"measurement": "Biodistribution: thyroid", "setting": "2 H post-injection", "value": "1.03 ± 0.26", "unit": "% ID/g"}, {"measurement": "Biodistribution: Lrg Int.", "setting": "21 H post-injection", "value": "8.55 ± 5.07", "unit": "% ID/g"}, {"measurement": "Biodistribution: Sm int.", "setting": "21 H post-injection", "value": "1.51 ± 0.91", "unit": "% ID/g"}, {"measurement": "Biodistribution: bladder", "setting": "21 H post-injection", "value": "1.99 ± 0.54", "unit": "% ID/g"}, {"measurement": "Biodistribution: blood", "setting": "21 H post-injection", "value": "0.48 ± 0.13", "unit": "% ID/g"}, {"measurement": "Biodistribution: heart", "setting": "21 H post-injection", "value": "1.12 ± 0.27", "unit": "% ID/g"}, {"measurement": "Biodistribution: kidney", "setting": "21 H post-injection", "value": "4.38 ± 3.46", "unit": "% ID/g"}, {"measurement": "Biodistribution: liver", "setting": "21 H post-injection", "value": "0.59 ± 0.21", "unit": "% ID/g"}, {"measurement": "Biodistribution: lung", "setting": "21 H post-injection", "value": "2.89 ± 0.93", "unit": "% ID/g"}, {"measurement": "Biodistribution: muscle", "setting": "21 H post-injection", "value": "0.22 ± 0.06", "unit": "% ID/g"}, {"measurement": "Biodistribution: spleen", "setting": "21 H post-injection", "value": "2.07 ± 0.68", "unit": "% ID/g"}, {"measurement": "Biodistribution: stomach", "setting": "21 H post-injection", "value": "9.36 ± 2.18", "unit": "% ID/g"}, {"measurement": "Biodistribution: thyroid", "setting": "21 H post-injection", "value": "3.74 ± 1.42", "unit": "% ID/g"}, {"measurement": "Biodistribution: PC-3 PiP", "setting": "1 H post-injection", "value": "22.7 ± 5.42", "unit": "% ID/g"}, {"measurement": "Biodistribution: PC-3 PiP", "setting": "2 H post-injection", "value": "21.1 ± 6.16", "unit": "% ID/g"}, {"measurement": "Biodistribution: PC-3 PiP", "setting": "21 H post-injection", "value": "12.1 ± 5.03", "unit": "% ID/g"}, {"measurement": "Biodistribution: PC-3 flu", "setting": "1 H post-injection", "value": "0.80 ± 0.30", "unit": "% ID/g"}, {"measurement": "Biodistribution: PC-3 flu", "setting": "2 H post-injection", "value": "0.52 ± 0.05", "unit": "% ID/g"}, {"measurement": "Biodistribution: PC-3 flu", "setting": "21 H post-injection", "value": "0.84 ± 0.23", "unit": "% ID/g"}]}
{"molecule": "O=C(O)CC[C@H](NC(=O)N[C@@H](CCC(=O)NCCc1ccc([211At])cc1)C(=O)O)C(=O)O", "note": "[[^211At]HS-549]", "values": [{"measurement": "Biodistribution: Lrg Int.", "setting": "1 H post-injection", "value": "1.16 ± 0.20", "unit": "% ID/g"}, {"measurement": "Biodistribution: Sm int.", "setting": "1 H post-injection", "value": "5.52 ± 0.82", "unit": "% ID/g"}, {"measurement": "Biodistribution: bladder", "setting": "1 H post-injection", "value": "5.85 ± 1.62", "unit": "% ID/g"}, {"measurement": "Biodistribution: blood", "setting": "1 H post-injection", "value": "5.53 ± 0.84", "unit": "% ID/g"}, {"measurement": "Biodistribution: heart", "setting": "1 H post-injection", "value": "4.34 ± 0.96", "unit": "% ID/g"}, {"measurement": "Biodistribution: kidney", "setting": "1 H post-injection", "value": "46.7 ± 8.24", "unit": "% ID/g"}, {"measurement": "Biodistribution: liver", "setting": "1 H post-injection", "value": "7.94 ± 2.15", "unit": "% ID/g"}, {"measurement": "Biodistribution: lung", "setting": "1 H post-injection", "value": "9.77 ± 1.75", "unit": "% ID/g"}, {"measurement": "Biodistribution: muscle", "setting": "1 H post-injection", "value": "1.11 ± 0.29", "unit": "% ID/g"}, {"measurement": "Biodistribution: spleen", "setting": "1 H post-injection", "value": "8.79 ± 2.09", "unit": "% ID/g"}, {"measurement": "Biodistribution: stomach", "setting": "1 H post-injection", "value": "7.07 ± 2.24", "unit": "% ID/g"}, {"measurement": "Biodistribution: thyroid", "setting": "1 H post-injection", "value": "3.24 ± 0.56", "unit": "% ID/g"}, {"measurement": "Biodistribution: Lrg Int.", "setting": "2 H post-injection", "value": "4.59 ± 0.81", "unit": "% ID/g"}, {"measurement": "Biodistribution: Sm int.", "setting": "2 H post-injection", "value": "3.81 ± 1.24", "unit": "% ID/g"}, {"measurement": "Biodistribution: bladder", "setting": "2 H post-injection", "value": "5.04 ± 0.87", "unit": "% ID/g"}, {"measurement": "Biodistribution: blood", "setting": "2 H post-injection", "value": "2.87 ± 0.40", "unit": "% ID/g"}, {"measurement": "Biodistribution: heart", "setting": "2 H post-injection", "value": "3.36 ± 0.59", "unit": "% ID/g"}, {"measurement": "Biodistribution: kidney", "setting": "2 H post-injection", "value": "40.4 ± 15.5", "unit": "% ID/g"}, {"measurement": "Biodistribution: liver", "setting": "2 H post-injection", "value": "4.65 ± 1.28", "unit": "% ID/g"}, {"measurement": "Biodistribution: lung", "setting": "2 H post-injection", "value": "8.24 ± 2.25", "unit": "% ID/g"}, {"measurement": "Biodistribution: muscle", "setting": "2 H post-injection", "value": "0.76 ± 0.18", "unit": "% ID/g"}, {"measurement": "Biodistribution: spleen", "setting": "2 H post-injection", "value": "6.13 ± 1.59", "unit": "% ID/g"}, {"measurement": "Biodistribution: stomach", "setting": "2 H post-injection", "value": "14.3 ± 3.18", "unit": "% ID/g"}, {"measurement": "Biodistribution: thyroid", "setting": "2 H post-injection", "value": "4.11 ± 2.0", "unit": "% ID/g"}, {"measurement": "Biodistribution: Lrg Int.", "setting": "21 H post-injection", "value": "0.93 ± 0.41", "unit": "% ID/g"}, {"measurement": "Biodistribution: Sm int.", "setting": "21 H post-injection", "value": "1.28 ± 0.30", "unit": "% ID/g"}, {"measurement": "Biodistribution: bladder", "setting": "21 H post-injection", "value": "2.78 ± 0.82", "unit": "% ID/g"}, {"measurement": "Biodistribution: blood", "setting": "21 H post-injection", "value": "0.92 ± 0.15", "unit": "% ID/g"}, {"measurement": "Biodistribution: kidney", "setting": "21 H post-injection", "value": "2.60 ± 0.77", "unit": "% ID/g"}, {"measurement": "Biodistribution: liver", "setting": "21 H post-injection", "value": "0.89 ± 0.13", "unit": "% ID/g"}, {"measurement": "Biodistribution: lung", "setting": "21 H post-injection", "value": "4.26 ± 0.72", "unit": "% ID/g"}, {"measurement": "Biodistribution: muscle", "setting": "21 H post-injection", "value": "0.29 ± 0.09", "unit": "% ID/g"}, {"measurement": "Biodistribution: spleen", "setting": "21 H post-injection", "value": "2.31 ± 0.67", "unit": "% ID/g"}, {"measurement": "Biodistribution: stomach", "setting": "21 H post-injection", "value": "12.6 ± 6.20", "unit": "% ID/g"}, {"measurement": "Biodistribution: thyroid", "setting": "21 H post-injection", "value": "3.78 ± 0.63", "unit": "% ID/g"}, {"measurement": "Non-target organ uptake: spleen", "setting": "[1]", "value": 2.2, "unit": "% D/g"}, {"measurement": "Non-target organ uptake: stomach", "setting": "[1]", "value": 12.6, "unit": "% D/g"}, {"measurement": "Non-target organ uptake: thyroid", "setting": "[1]", "value": 3.8, "unit": "% D/g"}, {"measurement": "Biodistribution: PC-3 PiP", "setting": "1 H post-injection", "value": "43.25 ± 9.81", "unit": "% ID/g"}, {"measurement": "Biodistribution: PC-3 PiP", "setting": "2 H post-injection", "value": "42.0 ± 7.16", "unit": "% ID/g"}, {"measurement": "Biodistribution: PC-3 PiP", "setting": "21 H post-injection", "value": "10.6 ± 9.91", "unit": "% ID/g"}, {"measurement": "Biodistribution: PC-3 flu", "setting": "1 H post-injection", "value": "3.48 ± 0.53", "unit": "% ID/g"}, {"measurement": "Biodistribution: PC-3 flu", "setting": "2 H post-injection", "value": "2.82 ± 0.60", "unit": "% ID/g"}, {"measurement": "PSMA positive tumor uptake (in words)", "setting": "biodistributions of Tables 2, 3, 9, 10", "value": "demonstrated PSMA positive tumor uptake"}, {"measurement": "Renal clearance and normal tissue uptake (in words)", "setting": "compared with YC-I-27", "value": "faster renal clearance and lower normal tissue uptake than YC-I-27"}, {"measurement": "Clearance from the kidneys (in words)", "setting": "compared with [^131I]YC-I-27 and [^211At]YC-I-27", "value": "clear from the kidneys giving higher tumor to kidney ratios"}, {"measurement": "In vivo stability of the At-211 label (in words)", "setting": "from uptake in stomach, spleen and thyroid compared to the ^131I analogue", "value": "some instability of the At-211 label"}]}
